From the supplement of paper PMC4862054

Tests used:
Details in all cases: incubation time: 72 h
HCC1937 [1] = assay: normalised response (% of control), CellTox Green; higher = less cell death (100 = DMSO, 0 = benzethonium chloride kill control)
Procedure, shortened: (§1)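 For each plate, 0.1 % DMSO was set to 100 and a positive kill control to 0. Breast cancer cell lines (20 µl suspension) were seeded into 384-well plates already holding compound at 5 concentrations in 10-fold steps over a 10,000-fold range chosen per compound, and incubated for 72 h. CellTox Green fluorescence at 485/520 nm was read before CellTiter-Glo luminescence, which followed 10 min at room temperature. Each value is the normalised signal at one concentration.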

HCC1599 [2] = assay: as above
Procedure, shortened: as §1

DU-4475 [3] = assay: as above
Procedure, shortened: as §1

MDA-MB-231 [4] = assay: as above
Procedure, shortened: as §1

MFM-223 [5] = assay: as above
Procedure, shortened: as §1

CAL-148 [6] = assay: as above
Procedure, shortened: as §1

HDQ-P1 [7] = assay: as above
Procedure, shortened: as §1

CAL-85-1 [8] = assay: as above
Procedure, shortened: as §1

MDA-MB-468 [9] = assay: as above
Procedure, shortened: as §1

CAL-120 [10] = assay: as above
Procedure, shortened: as §1

MCF-10A [11] = assay: as above
Procedure, shortened: as §1

MDA-MB-436 [12] = assay: as above
Procedure, shortened: as §1

BT-474 [13] = assay: as above
Procedure, shortened: as §1

HCC1143 [14] = assay: as above
Procedure, shortened: as §1

MDA-MB-453 [15] = assay: as above
Procedure, shortened: as §1

CAL-51 [16] = assay: as above
Procedure, shortened: as §1

BT-549 [17] = assay: as above
Procedure, shortened: as §1

HCC1937 [18] = assay: normalised response (% of control), CellTiter-Glo; higher = more viable cells (100 = DMSO, 0 = benzethonium chloride kill control)
Experimental: (§2)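 DSRT, 72 h incubation, CellTox Green / CellTiter-Glo readout. Signal is normalised to DMSO and benzethonium chloride controls. Value is the normalised response at dose 3.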

HCC1599 [19] = assay: as above
Experimental: as §2

DU-4475 [20] = assay: as above
Experimental: as §2

MDA-MB-231 [21] = assay: as above
Experimental: as §2

MFM-223 [22] = assay: as above
Experimental: as §2

CAL-148 [23] = assay: as above
Experimental: as §2

HDQ-P1 [24] = assay: as above
Experimental: as §2

CAL-85-1 [25] = assay: as above
Experimental: as §2

MDA-MB-468 [26] = assay: as above
Experimental: as §2

SK-BR-3 = assay: as above
Experimental: as §2

CAL-120 [27] = assay: as above
Experimental: as §2

MCF-10A [28] = assay: as above
Experimental: as §2

Hs578T [29] = assay: as above
Experimental: as §2

MDA-MB-436 [30] = assay: as above
Experimental: as §2

BT-474 [31] = assay: as above
Experimental: as §2

HCC1143 [32] = assay: as above
Experimental: as §2

MDA-MB-453 [33] = assay: as above
Experimental: as §2

CAL-51 [34] = assay: as above
Experimental: as §2

BT-549 [35] = assay: as above
Experimental: as §2

Hs578T [36] = assay: normalised response (% of control), CellTox Green; higher = less cell death (100 = DMSO, 0 = benzethonium chloride kill control)
Procedure, shortened: as §1

SMILES: CCCCCOC(=O)Nc1nc(=O)n([C@@H]2O[C@H](C)[C@@H](O)[C@H]2O)cc1F [Capecitabine] (100 nM)
- normalised response (HCC1937 [1]): 103%
- normalised response (HCC1599 [2]): 95.2%
- normalised response (DU-4475 [3]): 99.9%
- normalised response (MDA-MB-231 [4]): 104%
- normalised response (MFM-223 [5]): 104%
- normalised response (CAL-148 [6]): 99.1%
- normalised response (HDQ-P1 [7]): 105%
- normalised response (CAL-85-1 [8]): 105%
- normalised response (MDA-MB-468 [9]): 127%
- normalised response (CAL-120 [10]): 99.9%
- normalised response (MCF-10A [11]): 101%
- normalised response (MDA-MB-436 [12]): 95.3%
- normalised response (BT-474 [13]): 91.4%
- normalised response (HCC1143 [14]): 87.6%
- normalised response (MDA-MB-453 [15]): 97.3%
- normalised response (CAL-51 [16]): 105%
- normalised response (BT-549 [17]): 89.4%
- normalised response (HCC1937 [18]): 97.2%
- normalised response (HCC1599 [19]): 98.3%
- normalised response (DU-4475 [20]): 106%
- normalised response (MDA-MB-231 [21]): 99.5%
- normalised response (MFM-223 [22]): 102%
- normalised response (CAL-148 [23]): 114%
- normalised response (HDQ-P1 [24]): 97.5%
- normalised response (CAL-85-1 [25]): 95.4%
- normalised response (MDA-MB-468 [26]): 103%
- normalised response (SK-BR-3): 100%
- normalised response (CAL-120 [27]): 103%
- normalised response (MCF-10A [28]): 95.5%
- normalised response (Hs578T [29]): 98.8%
- normalised response (MDA-MB-436 [30]): 102%
- normalised response (BT-474 [31]): 98.7%
- normalised response (HCC1143 [32]): 98.7%
- normalised response (MDA-MB-453 [33]): 103%
- normalised response (CAL-51 [34]): 99.5%
- normalised response (BT-549 [35]): 102%

SMILES: Cc1c(N)nc([C@H](CC(N)=O)NC[C@H](N)C(N)=O)nc1C(=O)N[C@H](C(=O)N[C@H](C)[C@@H](O)[C@H](C)C(=O)N[C@H](C(=O)NCCc1nc(-c2nc(C(=O)NCCC[S+](C)C)cs2)cs1)[C@@H](C)O)[C@@H](OC1OC(CO)C(O)C(O)C1OC1OC(CO)C(O)C(OC(N)=O)C1O)c1cnc[nH]1 (stereo partly specified) [Bleomycin] (100 nM)
- normalised response (HCC1599 [2]): 91.9%
- normalised response (DU-4475 [3]): 98.6%
- normalised response (MDA-MB-231 [4]): 104%
- normalised response (MFM-223 [5]): 101%
- normalised response (CAL-148 [6]): 93.5%
- normalised response (HDQ-P1 [7]): 110%
- normalised response (CAL-85-1 [8]): 99.8%
- normalised response (MDA-MB-468 [9]): 151%
- normalised response (CAL-120 [10]): 95.1%
- normalised response (MCF-10A [11]): 93.2%
- normalised response (Hs578T [36]): 81.2%
- normalised response (MDA-MB-436 [12]): 58.6%
- normalised response (BT-474 [13]): 98.1%
- normalised response (HCC1143 [14]): 91.3%
- normalised response (MDA-MB-453 [15]): 103%
- normalised response (CAL-51 [16]): 36.9%
- normalised response (BT-549 [17]): 87.6%
- normalised response (HCC1937 [18]): 84.2%
- normalised response (HCC1599 [19]): 94.6%
- normalised response (DU-4475 [20]): 93.8%
- normalised response (MDA-MB-231 [21]): 89.3%
- normalised response (MFM-223 [22]): 95.6%
- normalised response (CAL-148 [23]): 87.7%
- normalised response (HDQ-P1 [24]): 99.5%
- normalised response (CAL-85-1 [25]): 96.8%
- normalised response (MDA-MB-468 [26]): 80.4%
- normalised response (SK-BR-3): 92.8%
- normalised response (CAL-120 [27]): 95.3%
- normalised response (MCF-10A [28]): 90.6%
- normalised response (Hs578T [29]): 93.2%
- normalised response (MDA-MB-436 [30]): 89.1%
- normalised response (BT-474 [31]): 95.8%
- normalised response (HCC1143 [32]): 90.6%
- normalised response (MDA-MB-453 [33]): 90.2%
- normalised response (CAL-51 [34]): 55%
- normalised response (BT-549 [35]): 77.2%

SMILES: C[C@]12C=CC(=O)C=C1CC[C@@H]1[C@@H]2C(=O)C[C@@]2(C)[C@H]1CC[C@]2(O)C(=O)CO [Prednisone] (100 nM)
- normalised response (HCC1599 [2]): 105%
- normalised response (DU-4475 [3]): 103%
- normalised response (MFM-223 [5]): 78.5%
- normalised response (CAL-148 [6]): 64.5%
- normalised response (CAL-85-1 [8]): 104%
- normalised response (MDA-MB-468 [9]): 126%
- normalised response (CAL-120 [10]): 99.5%
- normalised response (MCF-10A [11]): 85.8%
- normalised response (Hs578T [36]): 111%
- normalised response (MDA-MB-436 [12]): 92.4%
- normalised response (BT-474 [13]): 103%
- normalised response (HCC1143 [14]): 119%
- normalised response (MDA-MB-453 [15]): 107%
- normalised response (CAL-51 [16]): 101%
- normalised response (BT-549 [17]): 96.7%
- normalised response (HCC1937 [18]): 101%
- normalised response (HCC1599 [19]): 133%
- normalised response (DU-4475 [20]): 101%
- normalised response (MDA-MB-231 [21]): 107%
- normalised response (MFM-223 [22]): 102%
- normalised response (CAL-148 [23]): 117%
- normalised response (HDQ-P1 [24]): 101%
- normalised response (CAL-85-1 [25]): 103%
- normalised response (MDA-MB-468 [26]): 99.3%
- normalised response (SK-BR-3): 104%
- normalised response (CAL-120 [27]): 103%
- normalised response (MCF-10A [28]): 109%
- normalised response (Hs578T [29]): 101%
- normalised response (MDA-MB-436 [30]): 101%
- normalised response (BT-474 [31]): 107%
- normalised response (HCC1143 [32]): 105%
- normalised response (MDA-MB-453 [33]): 113%
- normalised response (CAL-51 [34]): 68.4%
- normalised response (BT-549 [35]): 99.8%
